{"source": "patent US5563037A", "about": "“Homogeneous method for assay of double-stranded nucleic acids using fluorescent dyes and kit useful therein” (Johnson & Johnson Clinical Diagnostics, Inc., priority 1995, dated 1996)", "key": {"HIV-I DNA [1]": {"test_system": "HIV-I DNA", "experiment": "Example 2: leuco dye color scores of amplified target in pouches", "format": "biochemical", "settings": "dye added prior to amplification", "description": "The method of this invention was compared to an amplification and detection method outside the scope of this invention, which was carried out using YOYO-1 (1 μmolar final concentration), a tetravalent fluorescent dye, in the buffered solution described above. This dye has the following structure: [drawing 4]\nAmplification was carried out using self-contained chemical pouches such as those described in U.S. Pat. No. 5,229,297 (Schnipelsky et al). Those pouches contained the capture probe SEQ ID NO:5 attached to particles which were immobilized in a detection channel where reactions can take place.\nThe pouches were loaded with reagents, as follows:\nThe PCR reaction mixture of Example 1 (except the DNA polymerase) was made to a volume of 5472 μl. The resulting mixture was aliquoted into tubes A, B and C (1824 μl each) representing Samples A, B and C, respectively.\nThe sample in Tube A was diluted with buffer (220 μl) and subjected to amplification without any fluorescence dye present. The dye was added at the end of amplification for quantitative detection of the resulting products.\nIn addition to the PCR reagents, the sample in Tube B contained YOYO-1 fluorescent dye (0.1 μmolar) which had been added prior to amplification (220 μl of a 10 μmolar solution).\nThe sample in Tube C also contained YO-PRO-1 fluorescent dye (0.1 μmolar) which had been added prior to amplification (220 μl of a 10 μmolar solution).\nThe DNA polymerase (88 μl) and target HIV-I DNA target nucleic acid (220 μl) were then added to each tube, and the contents of the each of the three tubes were used to fill the PCR reagent compartment of eight pouches.\nAmplification was carried out using the same procedures as in Example 1. The PCR protocol was similarly carried out for 40 cycles using a thermal cycler as follows:\n1) Preheat to denature at 95° C. for 60 seconds,\npriming and extension for 40 seconds at 63.5° C., and denaturation for 10 seconds at 95° C., and\n3) final denaturation for 60 seconds at 95° C.\nThe results of amplification were detected in three ways: (1) color dye scores visually evaluated as 0 (no signal) to 10 (highest signal density), (2) ethidium bromide stained electrophoretic gels, and (3) fluorescence measured on a commercially available Perkin Elmer fluorimeter.\nThe noted color scores were obtained by using immobilized capture probes in the pouches with which the amplified target hybridized during incubation for 5 minutes at 42° C. The immobilized target was contacted with the conjugate solution (identified above) for 1 minute at 30° C., followed by the wash solution for 1 minute at 55° C. The leuco dye solution was then added at 30° C. and the resulting color signal was observed after two minutes incubation at 30° C. […]"}, "HIV-I DNA [2]": {"test_system": "HIV-I DNA", "experiment": "Example 1: PCR amplification of HIV-I DNA with YO-PRO-1 dye, fluorescence vs. PCR cycles", "format": "biochemical", "source_text": "The primers used in Examples 1 and 2 had the following sequences which are complementary to the gag region of HIV-I DNA:\nHIV-I target DNA was obtained from HUT78/HIV AAV cells obtained from Bernie Poiesz of Syracuse University. Each cell contained about 1 HIV-I copy.\nThe final PCR reaction mixture contained the primers SEQ ID NO:1 and SEQ ID NO:2 (0.4 μmolar of each), magnesium chloride (10 mmolar), each of dATP, dCTP, dGTP and dTTP (1.5 mmolar of each), tris(hydroxymethyl)aminomethane buffer (10 mmolar, pH 8), ethylenediaminetetraacetic acid (0.1 mmolar), potassium chloride (50 mmolar), DNA polymerase (160 units/ml) and Kodak Ultrapure Human DNA (0.22 μg/μl), glycerol (7.5%). […]\nAll reagents, except the DNA polymerase, were mixed with the buffer solution noted above. […] The fluorescence of the contents of that tube was then measured following dilution (100 μl of reaction mixture with 3900 μl of dye solution at a concentration of […], giving a final fluid volume of 4 ml in the fluorimeter cuvette) on a commercially available Perkin-Elmer LS-5B spectrofluorimeter (excitation at 491 nm, emission at 509 nm).\nThe results of these measurements are shown in the FIGURE which is a plot of fluorescence intensity vs. the number of PCR cycles. […]"}}, "data": [{"smiles": "C[n+]1c(C=C2C=CN(CCC[N+](C)(C)C)c3ccccc32)oc2ccccc21", "note": "[Compound E]", "values": [{"measurement": "effect of dye on amplification (color scores)", "setting": "HIV-I DNA [1]", "result": "not adversely affected"}, {"measurement": "Average Color Score", "setting": "HIV-I DNA [1]; leuco dye, 0 (no signal) to 10 (highest signal density), 40 cycles", "result": 6}, {"measurement": "fluorescence after PCR", "setting": "HIV-I DNA [2]; after 45 PCR cycles, excitation 491 nm, emission 509 nm", "result": "about 20 fluorescent units"}, {"measurement": "effect of dye on PCR", "setting": "HIV-I DNA [2]; dye present throughout entire amplification, 1 μmolar", "result": "did not adversely affect PCR"}]}]}
